What all share (experiment): inhibition of tumour cell growth, NCI panel, 48 h
The test system of assay [1] is CAKI-1.
Assay [2] deals with UO-31.
The subject of assay [3] is HT-29.
The subject of assay [4] is COLO 205.
In assay [5] the test system is IGROV-1.
Assay [6] deals with MOLT-4.
The subject of assay [7] is OVCAR-4.
Assay [8] has as its system NCI-H23.
Assay [9] concerns UACC-62.
In assay [10] the test system is KM-20L2.
Assay [11] concerns HCT-15.
The test system of assay [12] is SF-539.
In assay [13] the test system is SN12C.

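Test compounds were applied to cells in 96-well plates for 48 hours at 5 doses. The concentration for 50% growth inhibition is given as GI50.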 Active and inactive are the calls of the source. No stated cut-off is given here; in the data, active = GI50 up to about 1.1 µM and inactive = higher. A value given as a limit tells only on which side of the number the result lay.

14 compounds from ChEMBL document CHEMBL1201862, “PubChem BioAssay data set” (2004) can be followed below.

Take `Clc1ccc2c(c1)[nH]c1c2nc2sccn21`: the GI50 in [1], in [2], in assay [3], in [4], in [5] and in assay [6] was > 100 µM (inactive) in each case. For the same compound, the GI50 was > 100 µM (inactive) in assay [7]; > 100 µM (inactive) in assay [8]; > 100 µM (inactive) in [9]; > 100 µM (inactive) in assay [10]; greater than 100 µM in assay [11]; > 100 µM (inactive) in [12]. Further, the GI50 in assay [13] was > 100 µM (inactive).
Take `COc1cc2c3c(c1OC)-c1c(ccc4c1OCO4)CC3(C#N)N(C(=O)c1ccccc1)CC2` (configuration not stated): the GI50 in [1] was 36.6 µM (inactive); in assay [2], 99.8 µM (inactive); in assay [3] it was > 100 µM (inactive); in assay [4], > 100 µM (inactive); in assay [5], > 100 µM (inactive); in assay [6], > 100 µM (inactive). Also, the GI50 is 21 µM (inactive) in assay [7]; 52.8 µM (inactive) in assay [8]; 42 µM (inactive) in [9]; > 100 µM (inactive) in assay [10]; 39.7 µM in assay [11]; 28.1 µM (inactive) in [12]. Besides, the GI50 in assay [13] was 51.2 µM (inactive).
Take `CC(C(=O)c1ccc(Cl)cc1)/C(=N/NC(=O)NN)C(=O)Nc1cccc(C(F)(F)F)c1` (configuration not stated): the GI50 in assay [1], in [2], in [3], in assay [4], in [5] and in assay [6] was > 100 µM (inactive) each time. For the same compound, the GI50 was > 100 µM (inactive) in assay [7]; > 100 µM (inactive) in assay [8]; > 100 µM (inactive) in assay [9]; > 100 µM (inactive) in assay [10]; greater than 100 µM in [11]; > 100 µM (inactive) in assay [12]. The GI50 in [13] is > 100 µM (inactive).
Turning to `COc1ccc(CCCN2c3ccccc3Sc3ccccc32)cc1`, the GI50 in assay [1] is > 100 µM (inactive); in [2], > 100 µM (inactive); in [3], 54.1 µM (inactive); in assay [4] it was 43.4 µM (inactive); in assay [5], > 100 µM (inactive); in assay [6] it was 19.6 µM (inactive). For the same compound, the GI50 was 53.2 µM (inactive) in [7]; > 100 µM (inactive) in assay [8]; > 100 µM (inactive) in assay [9]; 53.8 µM (inactive) in [10]; 27.9 µM in assay [11]; > 100 µM (inactive) in assay [12]. The GI50 in assay [13] is > 100 µM (inactive).
For `O=C(/C=C/c1cccc([N+](=O)[O-])c1)c1ccc([N+](=O)[O-])cc1`, the GI50 in assay [1], in assay [2], in [3], in assay [4], in [5] and in assay [6] was > 100 µM (inactive) throughout. Also, the GI50 in assay [7] is > 100 µM (inactive); in assay [8], > 100 µM (inactive); in assay [9], > 100 µM (inactive); in assay [10], > 100 µM (inactive); in [11], greater than 100 µM; in [12] it was > 100 µM (inactive). In addition, the GI50 in assay [13] is > 100 µM (inactive).
With `O=C1C2=C(c3ccccc31)C(c1cccc(Cl)c1)NC(S)=N2` (configuration not stated), the GI50 in assay [1] was 75.2 µM (inactive); in [2] it was 46.2 µM (inactive); in [3], > 100 µM (inactive); in assay [4], > 100 µM (inactive); in assay [5] it was > 100 µM (inactive); in [6] it was 91.8 µM (inactive). The GI50 in assay [7] is 76.7 µM (inactive); in [8], > 100 µM (inactive); in assay [9], > 100 µM (inactive); in assay [10], > 100 µM (inactive); in [11], greater than 100 µM; in [12], > 100 µM (inactive). Further, the GI50 in [13] was > 100 µM (inactive).
`NS(=O)(=O)c1ccc(NC(=O)COC(=O)c2cccc3c(=O)c4ccccc4[nH]c23)cc1`: the GI50 in assay [1] was > 52.5 µM (inactive); in assay [2], 23.3 µM (inactive); in assay [3] it was > 100 µM (inactive); in assay [4] it was > 88.3 µM (inactive); in assay [5], 21.5 µM (inactive); in assay [6] it was 14.3 µM (inactive). In addition, the GI50 in assay [7] is 25.5 µM (inactive); in assay [8], 21.4 µM (inactive); in assay [9], 14.6 µM (inactive); in assay [10], > 100 µM (inactive); in assay [11], 53.5 µM; in assay [12] it was 16.3 µM (inactive). Further, the GI50 in assay [13] is 24 µM (inactive).
For the compound `CC(C)N(C(=O)C1(C)CC1)C(C)C`, the GI50 in assay [1], in [2], in assay [3], in assay [4], in [5] and in assay [6] was > 100 µM (inactive) in each case. Also, the GI50 in assay [7] is > 100 µM (inactive); in assay [8] it was > 100 µM (inactive); in assay [9], > 100 µM (inactive); in assay [10] it was > 100 µM (inactive); in assay [11], greater than 100 µM; in [12], > 100 µM (inactive). In addition, the GI50 in assay [13] is > 100 µM (inactive).
For the compound `N#Cc1ccc(C2OCC3CC=CCC3CO2)cc1` (configuration not stated), the GI50 in assay [1] was > 100 µM (inactive); in assay [2], > 100 µM (inactive); in [3], 44.7 µM (inactive); in [4] it was 80.9 µM (inactive); in [5], > 100 µM (inactive); in [6] it was 2.97 µM (inactive). Moreover, the GI50 is > 100 µM (inactive) in assay [7]; 36.3 µM (inactive) in [8]; 80.7 µM (inactive) in [9]; > 100 µM (inactive) in assay [10]; 61.2 µM in assay [11]; > 100 µM (inactive) in assay [12]. Also, the GI50 in [13] was > 100 µM (inactive).
Take `Nc1nc(-c2ccccc2)cc(-c2cc(Cl)ccc2O)n1`: the GI50 in assay [1] is 74.5 µM (inactive); in assay [2], 39.9 µM (inactive); in assay [3] it was > 100 µM (inactive); in assay [4], > 100 µM (inactive); in [5], 49.3 µM (inactive); in [6], > 100 µM (inactive). The GI50 in assay [7] was 63.8 µM (inactive); in assay [8], 45.7 µM (inactive); in [9], > 100 µM (inactive); in assay [10], > 100 µM (inactive); in assay [11], greater than 100 µM; in [12], 31.6 µM (inactive). Besides, the GI50 in assay [13] is > 100 µM (inactive).
Turning to `O=C1C=CC(=O)N1Nc1ccc([N+](=O)[O-])cc1[N+](=O)[O-]`, the GI50 in assay [1] was > 47.9 µM (inactive); in assay [2], > 100 µM (inactive); in [3] it was > 71.4 µM (inactive); in assay [4], > 42.8 µM (inactive); in [5], > 100 µM (inactive); in assay [6] it was 33.3 µM (inactive). The GI50 in assay [7] was > 42.3 µM (inactive); in assay [8] it was > 100 µM (inactive); in assay [9], > 100 µM (inactive); in assay [10], > 100 µM (inactive); in assay [11] it was greater than 74.1 µM; in assay [12], > 100 µM (inactive). For the same compound, in assay [13], the GI50 is > 100 µM (inactive).
As to `C[N+]1=c2c3cccc4cccc(c(=O)n2CC1)c43`, the GI50 in assay [1] was 23.1 µM (inactive); in assay [2] it was 12.3 µM (inactive); in [3], 16.8 µM (inactive); in assay [4] it was 10.1 µM (inactive); in [5], 21.9 µM (inactive); in assay [6], 3.37 µM (inactive). Also, the GI50 in assay [7] is 17.6 µM (inactive); in assay [8] it was 17.6 µM (inactive); in assay [9], 17.5 µM (inactive); in [10] it was 15.7 µM (inactive); in [11] it was 22 µM; in assay [12], 14.6 µM (inactive). Also, the GI50 in assay [13] is 18.1 µM (inactive).
As for `C[P+](C)(C)C`, the GI50 in assay [1], in assay [2], in assay [3], in assay [4], in assay [5] and in [6] was > 100 µM (inactive) in each case. Further, the GI50 in [7] was > 100 µM (inactive); in [8], > 100 µM (inactive); in assay [9] it was > 100 µM (inactive); in [10], > 100 µM (inactive); in assay [11] it was greater than 100 µM; in [12], > 100 µM (inactive). Besides, the GI50 in assay [13] is > 100 µM (inactive).
Regarding `CC(C)CN(CC(C)C)C(=O)C1CCCC[C@@H]1C(=O)O` (some centres not stated), the GI50 in assay [1], in assay [2], in assay [3], in [4], in assay [5] and in assay [6] was > 100 µM (inactive) throughout. Besides, the GI50 in assay [7] is > 100 µM (inactive); in assay [8] it was > 100 µM (inactive); in assay [9] it was > 100 µM (inactive); in assay [10], > 100 µM (inactive); in assay [11], greater than 100 µM; in assay [12], > 100 µM (inactive). The GI50 in assay [13] was > 100 µM (inactive).
